From patent US20130337564A1, “Treatment of Pluripotent Cells” (Janssen Biotech, Inc., priority 2012, published 2013)
Where “and” joins values, the source holds several entries; their conditions need not be identical. Equal entries are not always repeated.

Key:
[1] = system: cells expressing pluripotency markers derived from human embryonic stem cells; assay: MTS viability (toxicity) assay of cells expressing pluripotency markers; assay type: cell-based; set-up: Raw data (duplicate), first replicate / Average: unit not given here; details: for viability at 10 µM: Homo sapiens, Embryonic stem cell; for viability at 10 µM / % Control: viability of cells expressing pluripotency markers, relative to control
Description: Derivation and maintenance of cells expressing pluripotency makers was conducted as has been described in Example 2. Cells were grown in DMEM:F12 supplemented with 2% FCS (Invitrogen), 100 ng/ml Activin A, 20 ng/ml Wnt-3a, and 50 ng/ml IGF (R&D Biosystems). Cells were seeded at a density of 10,000 cells/cm^2 on Falcon polystyrene flasks and grown in monolayer culture at 37° C., 5% CO2, low oxygen. After reaching 60-70% confluence, cells were passed by washing the monolayer with PBS and incubating with TrypLE (Invitrogen) for 3-5 minutes to allow detachment and single cell dispersal.
Screening was conducted using test compounds from a proprietary library of small molecules selected for their ability to inhibit GSK-3B enzyme activity. Compounds from this library were made available as 1 mM stocks, in a 96-well plate format in 50 mM HEPES, 30% DMSO. For assay, cells expressing pluripotency markers were washed, counted, and plated in normal culture medium at a seeding density of 20,000 cells per well in 96-well clear-bottom, dark-well plates (Costar). This seeding density was previously determined to yield optimal monolayer formation in overnight culture. On the following day, culture medium was removed, cell monolayers were rinsed three times with PBS, and test compounds were added to the wells in 80 μl aliquots, each diluted into assay medium at a final assay concentration of 10 μM. On day 2 of the assay, medium was removed from each well and replaced with a fresh aliquot of test compounds diluted into assay medium. Assay medium on days 1 and 2 of culture consisted of DMEM:F12 supplemented with 0.5% FCS and 100 ng/ml Activin A. On days 3 and 4 of culture, medium was removed from each well and replaced with DMEM:F12 supplemented with 2% FCS and 100 ng/ml Activin A (no test compound). On day 4 of assay, 15 μl of MTS (Promega) was added to each well and plates were incubated at 37° C. for 1.5 to 4 hours prior to reading optical density at 490 nm on a SpectraMax (Molecular Devices) instrument. Statistical measures consisting of mean, standard deviation, and coefficient of variation were calculated for each duplicate set. Toxicity was calculated for each test well relative to a positive control (wells treated with Activin A and Wnt3a on days 1 and 2 of culture).
A larger proportion of the compounds have minimal or no measurable toxicity in this cell-based assay.
A small panel of select compounds was repeat tested over a narrow dose titration range, again using cells expressing pluripotency markers in a similar assay as described above.

[2] = system: human embryonic stem cells (H9 or H1 lines); assay: Plate reader (MTS) proliferation assay; assay type: cell-based; details: for activity at 10 µM: Homo sapiens, Embryonic stem cell, 96 h; for activity at 10 µM / % Control Value (proliferation): 10 μM test compound with 100 ng/ml activin A on days 1-2, MTS OD490 on day 4, vs Activin A/Wnt3a positive control, strong and moderate hits; for Average: average of replicate raw data; for Raw Data: replicate wells, plate reader proliferation screen of GSK-3B inhibitors
Description: Maintenance of human embryonic stem cells (H9 or H1 lines) was conducted as described in Example 1. Colonies of cells were maintained in an undifferentiated, pluripotent state with passage on average every four days. Passage was performed by exposing cell cultures to a solution of collagenase (1 mg/ml; Sigma-Aldrich) for 10 to 30 minutes at 37° C. followed by gentle scraping with a pipette tip to recover cell clusters. Clusters were allowed to sediment and washed to remove residual collagenase. Cell clusters were split at a ratio of 1:3 monolayer area for routine culture or a 1:1 ratio for immediate assay. The human embryonis stem cell lines used for these examples were maintained at passage numbers less than 50 and routinely evaluated for normal karyotypic phenotype as well as absence of mycoplasm contamination.
Cell clusters used in assay were evenly resuspended in normal culture medium and plated into MATRIGEL-coated 96-well Packard VIEWPLATES (PerkinElmer) in volumes of 100 μl/well. MEF conditioned medium supplemented with 8 ng/ml bFGF) was used for initial plating and recovery. Daily feeding was conducted by aspirating spent culture medium from each well and replacing with an equal volume of fresh medium. Plates were maintained at 37° C. in a humidified box, 5% CO2 throughout the duration of assay.
Primary screening assays were initiated by aspirating culture medium from each well followed by three washes in PBS to remove residual growth factors and serum. Test volumes of 80-100 μl per well were added back containing DMEM:F12 base medium (Invitrogen) supplemented with 0.5% FCS (HyClone) and 100 ng/ml activin A (R&D Biosystems) and 10 μM test compound. Positive control wells contained the same medium substituting 10-20 ng/ml Wnt3a (R&D Biosystems). Negative control wells contained base medium with 0.5% FCS without activin A or Wnt3a. Screening compounds were tested in triplicate. Wells were aspirated and fed again with identical solutions on day 2 of the assay. On days 3 and 4, all assay wells were aspirated and converted to DMEM:F 12 supplemented with 2% FCS and 100 ng/ml activin A with the exception of negative control wells which were maintained in DMEM:F12 base medium with 2% FCS.
On day 4 of assay, 15-20 μl of MTS (Promega) was added to each well and plates were incubated at 37° C. for 1.5 to 4 hours. Densitometric readings at OD490 were determined using a Molecular Devices spectrophotometer plate reader. Average readings for replicate sets were calculated along with standard deviation and coefficient of variation. Experimental wells were compared to the Activin A/Wnt3a positive control to calculate a percent control value as a measure of proliferation.
Strong hits are defined as greater than or equal to 120% of control values; moderate hits are defined as falling within the interval of 60-120% of control values. A significant number of compounds induce a proliferative response in this assay.

[3] = MTS viability assay raw reading, replicate 1
[4] = MTS viability assay raw reading, replicate 2
[5] = average of duplicate MTS raw readings

SMILES: O=C1NC(=O)C(c2cn(CCCO)c3ncccc23)=C1c1cc[nH]c1 [Compound 242, 4-[1-(3-Hydroxypropyl)-1H-pyrrolo[2,3-b]pyridin-3-yl]-1H,1′H-3,3′-bipyrrole-2,5-dione]
- viability at 10 µM [1]: 71%
- Average ([1]; MTS viability readout, average of duplicate raw data): 0.601
- Raw data (duplicate), first replicate ([1]; MTS viability readout, raw value of replicate 1): 0.590
- Raw data (duplicate), second replicate ([1]; MTS viability readout, raw value of replicate 2): 0.613
- Average (of Raw Data) ([2]; plate reader raw signal, mean of replicate wells, proliferation of human embryonic stem cells): 0.1152

SMILES: COc1ncc(C2=C(c3cn(CCCO)c4ncccc34)C(=O)NC2=O)c(OC)n1 [Compound 48, 3-[2,4-Bis(methyloxy)pyrimidin-5-yl]-4-[1-(3-hydroxypropyl)-1H-pyrrolo[2,3-b]pyridin-3-yl]-1H-pyrrole-2,5-dione]
- activity at 10 µM [2]: 148%

SMILES: Cn1ccc(C2=C(c3cn(CCCC#N)c4ncccc34)C(=O)NC2=O)n1 [Compound 94, 4-{3-[4-(1-Methyl-1H-pyrazol-3-yl)-2,5-dioxo-2,5-dihydro-1H-pyrrol-3-yl]-1H-pyrrolo[2,3-b]pyridin-1-yl}butanenitrile]
- viability at 10 µM [1]: 95%
- Raw data (duplicate), first replicate [1, 3]: 0.810
- Raw data (duplicate), second replicate [1, 4]: 0.683
- Average [1, 5]: 0.746
- activity at 10 µM [2]: 146%
- Average [2]: 0.9819

SMILES: COc1ncc(C2=C(c3cn(CCCC#N)c4ncccc34)C(=O)NC2=O)c(OC)n1 [Compound 74, 4-(3-{4-[2,4-Bis(methyloxy)pyrimidin-5-yl]-2,5-dioxo-2,5-dihydro-1H-pyrrol-3-yl}-1H-pyrrolo[2,3-b]pyridin-1-yl)butanenitrile]
- viability at 10 µM [1]: 78.8%
- activity at 10 µM [2]: 130%

SMILES: O=C1NC(=O)C(c2cn(CCCO)c3ncccc23)=C1c1cc2ccccc2o1 [Compound 241, 3-(1-Benzofuran-2-yl)-4-[1-(3-hydroxypropyl)-1H-pyrrolo[2,3-b]pyridin-3-yl]-1H-pyrrole-2,5-dione]
- viability at 10 µM [1]: 85.3%

SMILES: COc1ncc(C2=C(c3cn(CCc4ccccc4)c4ncccc34)C(=O)NC2=O)c(OC)n1 [Compound 98, 3-[2,4-Bis(methyloxy)pyrimidin-5-yl]-4-[1-(2-phenylethyl)-1H-pyrrolo[2,3-b]pyridin-3-yl]-1H-pyrrole-2,5-dione]
- viability at 10 µM [1]: 88.1%
- Raw data (duplicate), first replicate [1, 3]: 0.758
- Raw data (duplicate), second replicate [1, 4]: 0.575
- Average [1, 5]: 0.667
- activity at 10 µM [2]: 88%
- Average [2]: 0.6374

SMILES: COCCCn1cc(C2=C(c3ccccc3OC)C(=O)NC2=O)c2cnccc21 [Compound 55, 3-[2-(Methyloxy)phenyl]-4-{1-[3-(methyloxy)propyl]-1H-pyrrolo[3,2-c]pyridin-3-yl}-1H-pyrrole-2,5-dione]
- viability at 10 µM [1]: 115%
- Raw data (duplicate), first replicate [1, 3]: 0.952
- Raw data (duplicate), second replicate [1, 4]: 0.919
- Average [1, 5]: 0.935
- activity at 10 µM [2]: 152%
- Average [2]: 1.1695

SMILES: O=C1NC(=O)C(c2cccc3c2oc2ccccc23)=C1c1cn(CCCO)c2ncccc12 [Compound 33, 3-Dibenzo[b,d]furan-4-yl-4-[1-(3-hydroxypropyl)-1H-pyrrolo[2,3-b]pyridin-3-yl]-1H-pyrrole-2,5-dione]
- viability at 10 µM [1]: 45.2%
- Raw data (duplicate), first replicate [1, 3]: 0.315
- Raw data (duplicate), second replicate [1, 4]: 0.542
- Average [1, 5]: 0.428
- Average [2]: 0.1889

SMILES: O=C1NC(=O)C(c2cccc3c2sc2ccccc23)=C1c1cn(CCCO)c2ncccc12 [Compound 34, 3-Dibenzo[b,d]thien-4-yl-4-[1-(3-hydroxypropyl)-1H-pyrrolo[2,3-b]pyridin-3-yl]-1H-pyrrole-2,5-dione]
- viability at 10 µM [1]: 83.5%
- Raw data (duplicate), first replicate [1, 3]: 0.750
- Raw data (duplicate), second replicate [1, 4]: 0.624
- Average [1, 5]: 0.687
- Average [2]: 0.1420

SMILES: O=C1NC(=O)C2=C1c1cn(c3ccccc13)CCOCCOCCN(Cc1ccncc1)CCn1cc2c2ccccc21 [Compound 139, 14-(Pyridin-4-ylmethyl)-6,7,9,10,13,14,15,16-octahydro-12H,23H-5,26:17,22-di(metheno)dibenzo[k,q]pyrrolo[3,4-n][1,4,7,10,19]dioxatriazacyclohenicosine-23,25(24H)-dione]
- Raw data (duplicate), first replicate [1, 3]: 0.532
- Raw data (duplicate), second replicate [1, 4]: 0.682
- Average [1, 5]: 0.607
- % Control [1]: 78.3%
- % Control Value (proliferation) [2]: 115.5%
- Average [2]: 0.8650
- Raw Data [2]: 0.9184 and 0.8116

SMILES: O=C1NC(=O)C2=C1c1cn(c3ccccc13)CCOCCOCCN(Cc1ccccc1)CCn1cc2c2ccccc21 [Compound 105, 14-(Phenylmethyl)-6,7,9,10,13,14,15,16-octahydro-12H,23H-5,26:17,22-di(metheno)dibenzo[k,q]pyrrolo[3,4-n][1,4,7,10,19]dioxatriacyclohenicosine-23,25(24H)-dione]
- Raw data (duplicate), first replicate [1, 3]: 0.916
- Raw data (duplicate), second replicate [1, 4]: 0.859
- Average [1, 5]: 0.887
- % Control [1]: 124.0%
- % Control Value (proliferation) [2]: 183.8%
- Average [2]: 1.2038
- Raw Data [2]: 1.0968 and 1.3108

SMILES: O=C1NC(=O)C(c2nn(CCCO)c3ccccc23)=C1c1cn(C2CCOCC2)c2ccccc12 [Compound 78, 3-[1-(3-Hydroxypropyl)-1H-indazol-3-yl]-4-[1-(tetrahydro-2H-pyran-4-yl)-1H-indol-3-yl]-1H-pyrrole-2,5-dione]
- viability at 10 µM [1]: 22%
- Raw data (duplicate), first replicate [1, 3]: 0.300
- Raw data (duplicate), second replicate [1, 4]: 0.223
- Average [1, 5]: 0.261
- activity at 10 µM [2]: 154%
- Average [2]: 1.0282

SMILES: O=C1NC(=O)C2=C1c1cn(c3ccccc13)CCOCCOCCN(Cc1ccco1)CCn1cc2c2ccccc21 [Compound 127, 14-(Furan-2-ylmethyl)-6,7,9,10,13,14,15,16-octahydro-12H,23H-5,26:17,22-di(metheno)dibenzo[k,q]pyrrolo[3,4-n][1,4,7,10,19]dioxatriazacyclohenicosine-23,25(24H)-dione]
- Raw data (duplicate), first replicate [1, 3]: 0.745 and 0.744
- Raw data (duplicate), second replicate [1, 4]: 0.685 and 0.737
- Average [1, 5]: 0.715 and 0.741
- % Control [1]: 90.2% and 94.1%
- % Control Value (proliferation) [2]: 136.8% and 124.4%
- Average [2]: 0.9229 and 1.0032
- Raw Data [2]: 0.9589 and 0.8868 and 1.0442 and 0.9622
